Data reported in patent US7118921B1, “Incorporation and applications of biomolecular interactions within a carrier” (McMaster University, priority 1999, dated 2006).

System: melittin and intact BCaM:melittin complex
Type: binding, bovine

CN1CCN(CCCN2c3ccccc3Sc3ccc(C(F)(F)F)cc32)CC1 [TFP, trifluoperazine]
Effect on emission wavelength and anisotropy of the intact complex or of melittin: not affected
Effect on intensity of melittin or the intact complex: large decrease in intensity
